Results published in patent US12642870B2, “Compositions and methods for delivery of nucleic acids” (Poseida Therapeutics, Inc., priority 2020, dated 2026).

Legend:
[1] = Physical characterisation of mRNA-containing LNPs (DLS, NTA, zeta potential); assay type: physicochemical; details: Fluc mRNA LNPs: compound/DOPE/Cholesterol/DMG-PEG2000 41.44/45.85/10/2.7, lipid:RNA 40:1 (w/w)
Experimental: A series of ten multi-component LNP compositions of the present disclosure comprising exemplary compounds of Formula (I) was prepared by combining various percentages of an exemplary compound of Formula (I), the phospholipid DOPE, the structural lipid cholesterol (Chol) and 1,2-dimyristoyl-sn-glycerol methoxypolyethylene glycol (DMG-PEG2000; Avanti Polar Lipids, Alabaster, Alabama, USA).
Individual 25 mg/ml stock solutions were prepared by solubilizing the lipids in 200-proof HPLC-grade ethanol and stock solutions were stored at −80° C. until formulated. At the time of formulation, the lipid stock solutions were briefly allowed to equilibrate to room temp and then placed on a hot plate maintained at a temperature range of 50-55° C.
A 1 mg/mi solution of the desired mRNA to be incorporated into the LNPs was added to 150 mM sodium acetate buffer (pH 5.2) to form a stock solution and kept on ice. The lipid phase was mixed with the aqueous m RNA phase inside a microfluidic chip using a NanoAssemblr® instrument (Precision Nanosystems, Vancouver, BC, Canada) according to the manufacturer's instructions to form LNP compositions comprising encapsulated mRNAs.
The resultant mRNA LNP compositions were then transferred to a Repligen Float-A-Lyzer dialysis device—having a molecular weight cut off (MWCO) of 8-10 kDa (Spectrum Chemical Mfg. Corp, CA, USA) and processed by dialysis against phosphate buffered saline (PBS) (dialysate:dialysis buffer volume at least 1:200 v/v), pH 7.4 overnight at 4° C. (or alternatively room temperature for at least 4 hours), to remove the 25% ethanol and achieve a complete buffer exchange. In some experiments the LNPs were further concentrated by in an Amicon® Ultra-4 centrifugal filter unit, MWCO-30 kDa (Millipore Sigma, USA) spun at ˜4100×g in an ultracentrifuge. The mRNA LNPs were then stored at 4° C. until further use.
A series of multicomponent LNP compositions comprising one of COMPOUNDS 1-8 described in Example 1 and the mRNA encoding flue was prepared according to Example 2 and the physical characteristics of the resulting LNPs were analyzed.
In a separate experiment, LNP compositions of the present disclosure comprising mRNA encoding firefly luciferase (hereafter “Fluc”; TriLink) and COMPOUNDS 1-8 were prepared as described in Example 2 by combining one of COMPOUNDS 1-8, the phospholipid DOPE, the structural lipid cholesterol (Chol) and 1,2-dimyristoyl-sn-glycerol methoxypolyethylene glycol (DMG-PEG2000) in the percentages presented in Table 8: […]

[2] = Agarose gel electrophoresis for nucleic acid incorporation; assay type: physicochemical; details: 1% agarose gel, SYBR Safe, naked mRNA control
Experimental: The LNP compositions were analyzed to verify the presence of mRNA. An aliquot of each of the LNP compositions was loaded on to a 1% agarose gel with a size standard and naked mRNA control, subject to electrophoresis and the presence of mRNA was detected by exposure of ultraviolet light to excite the fluorophore (SYBR Safe) which is complexed with nucleic acid. The free mRNA migrated in the gel in accordance with its molecular weight whereas all of the mRNA-containing LNP compositions remained at the interface of the agarose gel and the well with little to no detectable free mRNA indicating the LNP compositions comprising COMPOUND 1 of Example 1 were capable of incorporating mRNA.

[3] = test system: Resting T-cells; assay: LNP delivery of eGFP mRNA to resting T-cells; assay type: cell-based; details: eGFP mRNA LNPs 0.4144:0.4585:0.1:0.027, lipid:nucleic acid 40:1, 0.5 ug mRNA per well, 24 hrs
Experimental: In one experiment, LNPs of the present disclosure comprising one of COMPOUNDS 1-4, DOPE, Cholesterol and DMG-PEG2000 at a molar ratio of 0.4144:0.4585:0.1:0.027 and further comprising Cleancap mRNA encoding eGFP were formed on a NanoAssemblr® (Precision Nanosystems). […] Resting T-cells were treated with varying amounts of the four LNP composition and at 24 hrs, the cells were analyzed to determine the percentage of cells that were viable and that expressed […]. The results of the analysis are shown in Table 12 for a dose of 0.5 ug mRNA per well.

[4] = Physical characterisation of DNA-containing LNPs (DLS, NTA, zeta potential); assay type: physicochemical; details: nano-pB-EF1a-GFP DNA LNPs: compound/DOPE/Cholesterol/DMG-PEG2000 38.0/50.0/10.0/2.0, lipid:DNA 45:1 (w/w)
Experimental: LNP compositions of the present disclosure comprising DNA, a nanoplasmid encoding a piggyBac transposon, wherein the piggyBac transposon comprised GFP under control of the EF1a promoter (herein referred to as the nano-pB-EF1a-GFP), and one of COMPOUNDS 1-8 were prepared as described in Example 3 by combining one of COMPOUNDS 1-8, the phospholipid DOPE, the structural lipid cholesterol (Chol) and 1,2-dimyristoyl-sn-glycerol methoxypolyethylene glycol (DMG-PEG2000) in the following percentages in Table 20: […]

[5] = test system: HEK293T cells; assay: In vitro lipoplex nanoparticle delivery of eGFP mRNA to adherent cells; assay type: cell-based
Experimental: HEK293T cells were seeded in 96 well plates and grown to 70% confluence in [DMEM+10% FBS under a 5% CO2 atmosphere at 37° C. Lipoplex nanoparticles comprising COMPOUND 1 and 0.007, 0.03, 0.125, and 0.50 μg mRNA encoding eGFP were added to the cells. Following incubation with the lipoplex nanoparticles, cells were assessed for GFP expression by epifluorescence microscopy and flow cytometry.

[6] = Average diameter of lipoplex nanoparticles comprising eGFP mRNA (DLS or NTA); assay type: physicochemical; details: lipoplex nanoparticles comprising eGFP mRNA and COMPOUND 1, both methods
Experimental: Lipoplex nanoparticles were formulated using solvent injection method. In brief, a multivalent cationic bolaform amphiphilic lipid (4.0 mg) was dissolved in dimethyl sulfoxide (1 mL) to obtain 4 mg/mL solution. The solution was heated for 15 min at 40° C. to dissolve the lipid. DNA or mRNA (0.040 mg) was diluted with 50 mM Sodium acetate buffer (2 mL, pH 5.5) to obtained 0.02 mg/mL solution. Bolamphiphile lipid solution (0.4 mg, 100 p1) was injected in DNA or mRNA solution (0.04 mg, 2 mL) under constant sonication. The mass ratio of […] was kept constant to 10 for all the bolamphiphile formulation. The sonication was continued for 5 min. The solution was dialyzed (MWCO 30 kDa) for 4-6 hours in PBS (1×, pH 7.4) at room temperature. Sample was concentrated using Amicon centrifuge tube (30 kDa) to get the desired concentration for subsequent in vivo or in vitro use.
Lipoplex nanoparticles were prepared comprising mRNA encoding eGFP using COMPOUND 1 according to the method above and the average diameter of the resulting nanoparticles was determined by DLS or NTA. Both methods yielded average diameters of about 120 nm and the presence of RNA in the nanoparticle was confirmed by gel electrophoresis as described in Example 3.

[7] = test system: Resting T-cells; assay: LNP delivery of nano-pB-EF1a-GFP DNA to resting T-cells; assay type: cell-based; details: nano-pB-EF1a-GFP DNA LNPs 0.38:0.5:0.1:0.02, lipid:nucleic acid 45:1, 24 hr
Description: The experiments described in this example used CD4/CD8 positive T-cells isolated from a leukapheresis product from a healthy donor.

[8] = test system: HEK293T cells; assay: In vitro LNP delivery of eGFP mRNA to adherent cells; assay type: cell-based; details: 0.125 μg eGFP mRNA per well, 24 hr, flow cytometry, LNP 41.44/45.85/10.0/2.7, lipid:RNA 40:1
Experimental: HEK293T cells were seeded in 96 well plates and grown to 70% confluence in DMEM+10% FBS] under a 5% CO2 atmosphere at 37° C. A 0.125 μg amount of 5′-CleanCap-eGFP mRNA (TriLink Biotech) formulated with LNP compositions comprising COMPOUNDS 1-4 as prepared in Example 3 at the following percentages in Table 10 was added to each well.
After incubating for 24 hr, cells were imaged for GFP expression with a Leica fluorescence microscope and then detached from 96 well plate to quantitate expression by flow cytometry.

Diameter (DLS; nm) [1]: 155.1 nm | Diameter (NTA; nm) [1]: 126.5 nm | PDI [1]: 0.174 | Total Particles/ml [1]: 1.66E+11 Particles/ml | Zeta Potential (mV) [1]: 1.41 mV | incorporation of mRNA into the nanoparticle compositions by gel electrophoresis [2]: confirmed | Diameter (DLS; nm) [4]: 123.5 nm | Diameter (NTA; nm) [4]: 96.9 nm | PDI [4]: 0.17 | Total Particles/ml [4]: 5.76E+11 Particles/ml | Zeta Potential (mV) [4]: 0.67 mV | average diameter of lipoplex nanoparticles [6]: about 120 nm
Compound: CC(C)C(CCC(C)C(CCC1CCC(C(=O)NCCCCCCNC(=O)C2CCC(CCC(SCCN(C)C)C(C)CCC(SCCN(C)C)C(C)C)C(SCCN(C)C)C2)CC1SCCN(C)C)SCCN(C)C)SCCN(C)C (stereo not shown) [Compound 1]
% Viable GFP+ [3]: 9.5% | % GFP ([5]; lipoplex nanoparticles comprising COMPOUND 1, 0.007 μg mRNA): 0.99% | % GFP ([5]; lipoplex nanoparticles comprising COMPOUND 1, 0.03 μg mRNA): 7.37% | % GFP ([5]; lipoplex nanoparticles comprising COMPOUND 1, 0.125 μg mRNA): 30.1% | % GFP ([5]; lipoplex nanoparticles comprising COMPOUND 1, 0.50 μg mRNA): 56.1% | % Viable GFP+ [7]: 35.2% | % Viable GFP+ [8]: 23.5%
